A short description of this test: Odor detection threshold (ODT). The note with it: for ODT: Table 9. The text has this:
Within these defined water-release groups, odorants are then further described based on their experimentally determined odor detection thresholds (ODT) to further characterize the odor impact or olfactive intensity of a citrus and other olfactive types within the herein-described released group of odorants.
Upon their release in headspace, odorants are detected based on their odor detection threshold values. Odor detection thresholds are defined as the lowest concentration of odorants in a selected medium (air or water) to be detected. By including odor values of odorants in the model, one can further improve on the values for predicted performance of once odorants are released from the partition into the air.
Various databases for experimental odor detection threshold values in various partitions such as water and air are available. See Compilation of Odor and Taste Threshold Values Data, American Society for Testing and Materials, F. A. Fazzalari Editor; Booleans Aroma Chemical Information Service (BACIS)).

Turning to `C=CC(C)(O)CCC=C(C)CC` (mixture of isomers) [ETHYL LINALOOL], the ODT is on record as 120 ppb. This compound also had an odt (Table 11, in ppb) of 120.00. This compound also returned an odt (Table 13, in ppb) of 120.00. Also, the odt (Table 15) stood at 120 ppb. Further, for the setting “Table 17”, the odt came out at 440 ppb.
`CC1=CCC(C=CC(C)C(C)O)C1(C)C` (stereo in doubt) [EBANOL] gave an ODT of 54 ppb. The same compound returned an odt (Table 11, in ppb) of 54.00. This compound also gave an odt (Table 13, in ppb) of 54.00.
For the compound `CCCCCCCCCCC=O` [ALDEHYDE C11], under “Table 13”, the odt worked out at 7.7 ppb.
Turning to `CCCCCCCCCCCC=O` [ALDEHYDE C12 (DODECANAL), DODECANAL], the odt (Table 15) is 17 ppb and the odt (Table 17) was determined as 17 ppb.
With `CCCCCCCC=O` [ALDEHYDE C 8 (OCTANAL), OCTANAL], the odt runs as follows: (Table 15) 4.8 ppb; (Table 17) 4.5 ppb.
Consider `CCCCCCCCCC=O` [ALDEHYDE C 10 (DECANAL), DECANAL], for which the odt is 8.7 ppb (Table 15) and 6.7 ppb (Table 17).
The compound `C=CCOC(=O)CCC1CCCCC1` [ALLYL CYCLOHXYL PROPIONATE, ALLYL CYCLOHEXYL PROPIONATE] came in with an ODT of 81 ppb. For the same compound, for the setting “Table 11, in ppb”, the odt is given as 81.00. The odt (Table 13, in ppb) came out at 61.00.
With `CCOC(=O)CC1(C)OCCO1` [APPLINAL], the ODT is recorded as 55 ppb. The odt (Table 11, in ppb) is listed as 55.00. For the same compound, the odt (Table 13, in ppb) turned out to be 55.00.
Compound `CCCCC/C=C\CCC=O` [CIS 4 DECENAL] showed an odt (Table 15) of 3.1 ppb and an odt (Table 17) of 3.1 ppb.
`CC/C=C\CCOC(C)=O` [CIS-3-HEXENYL ACETATE] registered an ODT of 170 ppb. The compound also returned an odt (Table 11, in ppb) of 170.00. For the setting “Table 13, in ppb”, the odt is on record as 170.00. The compound also displayed an odt (Table 15) of 170 ppb. The compound further yielded an odt (Table 17) of 170 ppb.
On to `CC/C=C\CCOC(=O)c1ccccc1O` [CIS-3-HEXENYL SALICYLATE], for which the ODT was 1.9 ppb. The compound also showed an odt (Table 11) of 1.9 ppb. Besides, the odt (Table 13) worked out at 1.8 ppb. Where the note is “Table 15”, this compound registered an odt of 1.9 ppb. The same compound displayed an odt (Table 17) of 1.9 ppb.
`CC(C)=CCCC(C)=CC=O` [CITRAL]: the odt is, setting by setting: (Table 11, in ppb) 12.00; (Table 13, in ppb) 12.00.
As to `CC(C)=CCCC(C)CC=O` (stereo not shown) [CITRONELLAL], the odt reads like this: (Table 11, in ppb) 33.00; (Table 13, in ppb) 33.00; (Table 15) 33 ppb; (Table 17) 33 ppb.
Take `CC(C)=CCCC(C)CCO` (stereo not shown) [CITRONELLOL]: the odt is, setting by setting: (Table 11, in ppb) 29.00; (Table 13, in ppb) 29.00.
Turning to `CC(C)=CCCC(C)CC#N` (stereo not shown) [CITRONELLYL NITRILE], the ODT turned out to be 71 ppb. For the setting “Table 11, in ppb”, this compound displayed an odt of 71.00. For the same compound, the odt (Table 13, in ppb) was 71.00. In addition, where the note is “Table 15”, the odt is 71 ppb. The odt (Table 17) stood at 71 ppb.
`C=CC(C)CCCC(C)(C)O` (stereo not shown) [DIHYDROMYRCENOL] yielded an ODT of 810 ppb. For the setting “Table 11, in ppb”, this compound had an odt of 819.00. Moreover, the odt (Table 13, in ppb) turned out to be 810.00. For the setting “Table 15”, this compound came in with an odt of 810 ppb. The odt (Table 17) was 810 ppb.
Compound `CCOC(=O)CC(C)=O` [ETHYL ACETOACETATE] came in with an ODT of 54 ppb. The compound further came in with an odt (Table 11, in ppb) of 55.00. For the setting “Table 13, in ppb”, the odt turned out to be 55.00.
On to `CCOC(=O)C(C)CC` (stereo not shown) [Ethyl 2-methylbutyrate], for which the ODT was determined as 20 ppb. The same compound gave an odt (Table 11, in ppb) of 20.00. For the same compound, the odt (Table 13, in ppb) is 20.00.
`CCC(C)C(=O)N(C)c1ccccc1` (stereo not shown) [GARDAMIDE] displayed an ODT of 24 ppb. Where the note is “Table 11, in ppb”, this compound displayed an odt of 24.00. Further, the odt (Table 13, in ppb) turned out to be 24.00. The odt (Table 15) was determined as 24 ppb. In addition, the odt (Table 17) amounted to 24 ppb.
The compound `CCCCCCOC(C)=O` [HEXYL ACETATE] came in with an ODT of 950 ppb. The same compound displayed an odt (Table 11, in ppb) of 550.00. The odt (Table 13, in ppb) was 950.00.
In turn, `CCCCCCCCCCCC#N` [LAURONITRILE] registered an odt (Table 13) of 6.7 ppb.
`CC1=CC(C)C(C=O)CC1` (stereo not shown) [LIGUSTRAL]: the odt (Table 11, in ppb) stood at 110.00; the odt (Table 13, in ppb) was determined as 110.00; the odt (Table 15) turned out to be 110 ppb; the odt (Table 17) came out at 110 ppb.
On to `C=CC(C)(O)CCC=C(C)C` (stereo not shown) [LINALOOL, linalool], for which the odt reads like this: (Table 15) 20 ppb; (Table 17) 20 ppb.
Turning to `CCCCCCCCCC=CC=O` [MANDARIN ALDEHYDE], under “Table 13”, the odt came to 1.5 ppb.
Compound `CC(CC=O)CCc1ccccc1` (stereo not shown) [MEFRANAL] registered an ODT of 17 ppb. Where the note is “Table 11, in ppb”, this compound gave an odt of 17.00. The odt (Table 13, in ppb) came to 17.00. The odt (Table 15) came to 17 ppb. The odt (Table 17) amounted to 17 ppb.
For the compound `CC(C)=CCCC(C)C=O` (stereo not shown) [MELONAL], the odt is 1.5 ppb (Table 15) and 1.5 ppb (Table 17).
`CCCCCC1C(=O)CCC1CC(=O)OC` (stereo not shown) [METHYL DIHYDRO JASMONATE] returned an ODT of 0.23 ppb. For the setting “Table 11”, this compound displayed an odt of 0.23 ppb. For the setting “Table 13”, this compound showed an odt of 0.23 ppb.
`CCCCCCC#CC(=O)OC` [METHYL OCTINE CARBONATE]: the odt was found to be 9.7 ppb (Table 15) and 8.7 ppb (Table 17).
With `CCC(CC)C(=O)N(C)c1cccc(C)c1` [PARADISAMIDE], the odt worked out at 0.8 ppb (Table 13), 0.6 ppb (Table 15) and 0.6 ppb (Table 17).
`CC1CC(C)(c2ccccc2)CO1` (stereo not shown) [RHUBAFURAN] yielded an odt (Table 11, in ppb) of 440.00; an odt (Table 13, in ppb) of 440.00; an odt (Table 15) of 440 ppb; an odt (Table 17) of 440 ppb.
`CC(C)CC1CCCC(C)(O)C1` (stereo not shown) [ROSSITOL] gave an ODT of 440 ppb. In addition, the odt (Table 11, in ppb) is on record as 440.00. This compound also registered an odt (Table 13, in ppb) of 440.00. For the setting “Table 15”, the odt was 440 ppb. Further, for the setting “Table 17”, the odt was 120 ppb.
Regarding `CC(=O)OC(C)c1ccccc1` (stereo not shown) [STRALLYL ACETATE, STYRALLYL ACETATE], the odt runs as follows: (Table 15) 110 ppb; (Table 17) 110 ppb.
`CCC(C)(O)CCCC(C)C` (stereo not shown) [TETRAHYDROLINALOOL] registered an ODT of 380 ppb. Further, the odt (Table 11, in ppb) is reported as 380.00. Moreover, the odt (Table 13, in ppb) came to 380.00.
In the case of `CC/C=C\CC/C=C/C=O` [TRANS 2 CIS 6 NONADENAL, TRANS 2 CIS 6 NONADIENAL], the odt was determined as 0.2 ppb (Table 15) and 0.2 ppb (Table 17).
Turning to `CC/C=C\CC/C=C/CO` [TRANS 2 CIS 6 NONADENOL, TRANS 2 CIS 6 NONADIENOL], the odt by setting is: (Table 15) 1.5 ppb; (Table 17) 1.5 ppb.
As to `CCCCCCCCCCC=CC#N` [TRIDECEN 2 NITRILE], the odt was determined as 8.7 ppb (Table 15) and 6.7 ppb (Table 17).
Turning to `CCC=C(C)C(O)CCCCC` (stereo not shown) [UNDECAVERTOL, 4-Methyl-3-decen-5-ol], the odt was 28 ppb (Table 15) and 28 ppb (Table 17).
The compound `C=C(C)[C@H]1CC=C(C)CC1` [d-LIMONINE, d-1-Methyl-4-isopropenyl-1-cyclohexene] had an ODT of 430 ppb. Moreover, the odt (Table 11, in ppb) is given as 430.00. Where the note is “Table 13, in ppb”, this compound registered an odt of 430.00. Further, the odt (Table 15) is 430 ppb. Further, the odt (Table 17) stood at 430 ppb.

The values are drawn from patent US20100087351A1, “Perfumes for Linear Citrus Release in Rinse-Off Systems” (Quest International Services B.V., priority 2007, published 2010).
